Experimental findings from patent publication EP4741383A1, “COMPOUND AND USE THEREOF AS ANTI-CANCER DRUG” (Tyligand Bioscience (Shanghai) Limited, priority 2023, dated 2025) are described below.

Assay [1] deals with T1, SHP2 enzyme (catalytic domain, amino acid sequence 224-528) (Homo sapiens, UniProt Q06124).
T1 construct: purchased GenScript
T1 sequence (Q06124 224-528): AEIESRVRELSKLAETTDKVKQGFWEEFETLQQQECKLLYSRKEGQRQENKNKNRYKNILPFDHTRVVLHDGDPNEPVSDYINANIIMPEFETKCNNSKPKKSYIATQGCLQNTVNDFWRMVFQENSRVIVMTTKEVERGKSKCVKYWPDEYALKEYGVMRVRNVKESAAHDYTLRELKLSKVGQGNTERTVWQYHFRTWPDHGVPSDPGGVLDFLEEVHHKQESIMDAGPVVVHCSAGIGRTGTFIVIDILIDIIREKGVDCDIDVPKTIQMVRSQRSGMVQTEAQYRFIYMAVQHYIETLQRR
Nature of the assay: SHP2 enzyme inhibition assay (DiFMUP substrate, fluorescence). It counts as biochemical. To be noted: for SHP2 IC50 times lower than control compound 11a-1: relative to 11a-1, IC50 = 0.108 µM. On the procedure:
This experiment evaluates the inhibitory effect of the test compounds on SHP2 enzyme activity by detecting the reaction between the human recombinant protein SHP2 enzyme and the substrate.
The stock solutions of the reaction buffer components were thawed and mixed homogeneously at room temperature, to prepare the reaction buffer (55 mM HEPES pH = 7.2 (Sigma, Cat. No. #PHR1428), 100 mM NaCl (Beyotime, Cat. No. #ST374, 5 M solution), 0.5 mM EDTA (Beyotime, Cat. No. #ST066), 1 mM DL-Dithiothreitol (DTT) (Sigma, Cat. No. #D9779), 0.002% BSA (Solarbio, Cat. No. #A8010), 0.001% Brij35 (Brij® L23 solution (Brij35) (Sigma, Cat. No. #B4184)). The SHP2 enzyme (catalytic domain, amino acid sequence 224-528, expressed and purified by GenScript) was thawed slowly on ice. 1 µL of this solution (1.37 mg/mL) was added to 386 µL of the reaction buffer to dilute it to 100 nM. Then, 120 µL of the 100 nM SHP2 enzyme solution was added to 2880 µL of reaction buffer to prepare a 4 nM SHP2 enzyme working solution. The test compounds and the specific inhibitor of SHP2 (11a-1, used as a positive control, Zeng, L. et al., J. Med. Chem. 2014, 57, 6594-6609) were prepared as 10 mM DMSO solutions. 10 µL of the 10 mM compound solution was mixed with 20 µL of DMSO solution, and then serially diluted 3-fold, resulting in 10 concentrations. 1 µL of the serially diluted solution was mixed with 99 µL of reaction buffer to obtain a 10-fold diluted compound working solution.
A 96-well black half-area microplate (Greiner, catalog #675076) was used. 25 µL of 4 nM SHP2 enzyme working solution and 5 µL of 10x compound working solution were added to each well and incubated at room temperature for 30 minutes. 15 µL of DiFMUP substrate (Thermo Fisher Scientific, catalog #D6567) was added to 2985 µL of reaction buffer to prepare a 50 µM substrate working solution. After incubation of the compounds and SHP2 enzyme, 20 µL of the 50 µM substrate working solution was added to each well and incubated at room temperature for 5 minutes. The plate was then read on a multi-mode microplate reader (BioTek, Synergy H1) at 340 nm/450 nm fluorescence.
Data were analyzed using GraphPad Prism 9.0 software. A non-linear S-curve regression dose-response-inhibition equation was used to fit the data and generate the dose-response curve, from which the IC50 value was calculated. [formula]

The test system of assay [2] is KYSE520. The assay is described as follows: CellTiter-Glo cell proliferation inhibition, KYSE520. The class given is cell-based, human. The note with it: Homo sapiens, KYSE-520; KYSE520 cells, 120 hours, CellTiter-Glo. An excerpt: In this study, the CellTiter-Glo® Luminescent Cell Viability Assay kit from Promega was used to evaluate the inhibitory effects of the disclosed compounds on the proliferation of cell lines KYSE520 (a human esophageal squamous cell carcinoma cell line dependent on SHP2 for growth), MeWo (a human malignant melanoma cell line), and MV4-11 (an RTK-mutant human acute monocytic leukemia cell line).
KYSE520 cells (Nanjing Kebaio Biotechnology Co., Ltd., Catalog #CBP60658) were thawed by rapidly shaking the cryovial in a 37 °C water bath to thaw within 1 minute. The thawed cell suspension was mixed homogeneously with RPMI 1640 medium (HyClone, Catalog #SH30027.01) containing 10% FBS (ExCell, Catalog #FND500), centrifuged at 1000 rpm for 5 minutes, and the supernatant was discarded. The cell pellet was resuspended in 5 mL of complete culture medium (RPMI 1640 medium containing 10% FBS) and placed in a cell culture flask with 25 cm^2 of bottom area, then cultured in a cell culture incubator at 37 °C, 95% humidity, and 5% CO2. Cell passaging was performed when the cell confluence reached approximately 80%. During cell passaging, the old culture medium was discarded, the cells were washed once with DPBS (Thermo Fisher, Catalog #14190-144), and 1 mL of trypsin (Thermo Fisher, Catalog #25200072) was added to digest the cells. When the cells dispersed into single cells and detached from the bottom of the culture flask, 3 mL of fresh complete culture medium was added to stop the digestion. After gently pipetting the cell suspension, 1/5 of the cell suspension was retained, 5 mL of fresh complete culture medium was added, and after mixing, the cells were placed in a cell culture flask for further culture. Cell plating was performed when the cell confluence again reached approximately 80%. During cell plating, following the cell passaging method, 1/5 of the cell suspension was retained for continued culture, and the remaining 4/5 of the cell suspension was placed in a 15 mL centrifuge tube. Cell viability was determined using the trypan blue exclusion method to ensure that cell viability was above 90%. A cell suspension with a density of 2.22 × 10^4 cells/mL was prepared using complete culture medium, and 135 µL of the cell suspension was added to a 96-well transparent flat-bottom black-walled cell culture plate (Greiner, Catalog #655090), resulting in a cell density of 3000 viable cells per well. A control group containing only complete culture medium without cells and compounds (i.e., culture medium control) and a control group containing cells but no compound (i.e., cell control) were set up. The cell plates were incubated overnight in a cell culture incubator. First, a 10 mM stock solution of the compound (Example compound and positive control compound 11a-1) in DMSO (Damas-beta, catalog #75927R) was serially diluted 3-fold to the 9th concentration, and a 10th concentration containing only DMSO (without compound) was also prepared as a control. Then, the DMSO solutions containing different concentrations of the compound were diluted 100-fold with complete culture medium, resulting in a 1% DMSO concentration in each solution. Finally, 15 µL of each solution was added to the corresponding wells of the cell culture plate, resulting in a starting compound concentration of 10 µM, with a 3-fold dilution between adjacent concentrations, and a final DMSO concentration of 0.1% in the cell culture plate. The cell plates were then incubated in the cell culture incubator for another 120 hours.
For endpoint detection, CellTiter-Glo reagent (Promega, catalog number #G7573, CellTiter-Glo® Luminescent Cell Viability Assay Kit) was melt and each cell plate was moved to room temperature for equilibration for 30 minutes. 75 µL (KYSE520 cells) or 50 µL (MeWo cells and MV 4-11 cells) of CellTiter-Glo was added to each well of the corresponding cell plate. The plates were shaken on a track-mounted shaker for 2 minutes to fully lyse the cells. […]

Setting [3] is: SHP2 catalytic domain, DiFMUP substrate, 30 min pre-incubation, read-out: S HP2 I C50.

The structures appear in SMILES notation. pIC50: −log10 of the molar value. Like-named read-outs stand apart in the source and are kept apart here.

Consider `O=C(Nc1ccc(-c2cc3cc(F)c(-c4nnn[nH]4)cc3n2C2CCC2)cc1)C(=O)Nc1ccc(N2CCC(C(O)C(F)(F)F)CC2)cc1` (centres unmarked) [Example 32], for which the pIC50 in assay [1] (setting [3]) was 7.21. Further, the IC50 (commonly the point on the concentration scale where inhibition reaches its midpoint) in assay [2] worked out at 0.182 µM.
As to `CCC(O)C1CCN(c2ccc(NC(=O)C(=O)Nc3ccc(-c4cc5cc(F)c(-c6nnn[nH]6)cc5n4C4CCC4)cc3)cc2)CC1` (centres unmarked) [Example 31], the pIC50 in assay [1] (setting [3]) was 7.06. Besides, the midpoint of inhibition in assay [2], the IC50, lay at 0.116 µM.
For `CC1(n2c(-c3ccc(NC(=O)C(=O)Nc4ccc(N5CC[C@H](CO)C5)cc4)cc3)cc3cc(F)c(-c4nnn[nH]4)cc32)CCC1` [Example 13], in that order: 7.18 and 0.182 µM.
In the case of `CC(C)(O)C1CC2(CCN(c3ccc(NC(=O)C(=O)Nc4ccc(-c5cc6cc(F)c(-c7nnn[nH]7)cc6n5C5CCC5)cc4)cc3)CC2)C1` [Example 98], the pIC50 in assay [1] (setting [3]) was 7.08. Besides, in assay [2], the IC50 was 0.195 µM.
In the same order, the values of `O=C(Nc1ccc(-c2cc3cc(F)c(-c4nnn[nH]4)cc3n2C2CCC2)cc1)C(=O)Nc1ccc(N2CCC(F)(CO)C2)cc1` (centres unmarked) [Example 17] are 6.92 and 0.185 µM.
As for `O=C(Nc1ccc(-c2cc3cc(F)c(-c4nnn[nH]4)cc3n2C2CCC2)cc1)C(=O)Nc1ccc(N2CCC3(CCC(CO)C3)CC2)cc1` (centres unmarked) [Example 106], the pIC50 in assay [1] (setting [3]) was 6.99. Further, the IC50 in assay [2] came to 0.11 µM.
For `CC(C)(O)C1CCN(c2ccc(NC(=O)C(=O)Nc3ccc(-c4cc5cc(F)c(-c6nnn[nH]6)cc5n4Cc4ccccc4)cc3)cc2)CC1` [Example 36], in that order: 7.28 and 0.12 µM.
`CC1(n2c(-c3ccc(NC(=O)C(=O)Nc4ccc(N5CC6(CCC(O)CC6)C5)cc4)cc3)cc3cc(F)c(-c4nnn[nH]4)cc32)CCC1` [Example 82]: the pIC50 in assay [1] (setting [3]) is 7.52. In addition, in assay [1], the “SHP2 IC50 times lower than control compound 11a-1” value is listed as 3-4 times. The compound also returned an IC50 in assay [2] of 0.097 µM.
With `CC1(n2c(-c3ccc(NC(=O)C(=O)Nc4ccc(N5CCC6(CCC(O)C6)CC5)cc4)cc3)cc3cc(F)c(-c4nnn[nH]4)cc32)CC1` (centres unmarked) [Example 102], in assay [1] (setting [3]), the pIC50 is 7.31. Also, in assay [2], half-maximal inhibition (IC50) was put at 0.116 µM.
For `CC(C)(O)C1CC2(CCN(c3ccc(NC(=O)C(=O)Nc4ccc(-c5cc6cc(F)c(-c7nnn[nH]7)cc6n5C5(C)CCC5)cc4)cc3)CC2)C1` [Example 99], in that order: 7.11 and 0.17 µM.
For `CC1(O)CC2(CCN(c3ccc(NC(=O)C(=O)Nc4ccc(-c5cc6cc(F)c(-c7nnn[nH]7)cc6n5C5CCC5)cc4)cc3)C2)C1` (centres unmarked) [Example 91], in that order: 7.03 and 0.101 µM.
As for `O=C(Nc1ccc(-c2ccsc2)cc1)C(=O)Nc1ccc(-c2cc3cc(Cl)c(-c4nnn[nH]4)cc3n2C2CCC2)cc1` [Example 5], the pIC50 in assay [1] (setting [3]) was 6.98.
On the same count and under the same terms, for `Cc1nnc(-c2cc3c(cc2F)cc(-c2ccc(NC(=O)C(=O)Nc4ccc(N5CCC6(CCOC6)CC5)cc4)cc2)n3C2CCC2)[nH]1` [Example 128] the value was < 5.00.
With `O=C(Nc1ccc(-c2cc3cc(F)c(-c4nnn[nH]4)cc3n2C2CCC2)cc1)C(=O)Nc1ccc(N2CCC3(CC2)COC3)cc1` [Example 63], in assay [1] (setting [3]), the pIC50 is 7.42. Also, the “SHP2 IC50 times lower than control compound 11a-1” value in assay [1] is 3-4 times.
`O=C(Nc1ccc(-c2cc3cc(F)c(-c4nnn[nH]4)cc3n2C2CCC2)cc1)C(=O)Nc1ccc(N2CC3(CCOC3)C2)cc1` [Example 54]: in assay [1] (setting [3]), the pIC50 is 7.16.
On the same count and under the same terms, with `CC1CN(c2ccc(NC(=O)C(=O)Nc3ccc(-c4cc5cc(F)c(-c6nnn[nH]6)cc5n4C4CCC4)cc3)cc2)CCC1CO` (centres unmarked) [Example 46] the figure was 7.35.
As to `O=C(Nc1ccc(-c2cc3cc(F)c(-c4nnn[nH]4)cc3n2C2CCC2)cc1)C(=O)Nc1ccc(N2CC(CCO)C2)cc1` [Example 9], the pIC50 in assay [1] was 7.06.
As for `O=C(Nc1ccc(-c2cc3cc(F)c(-c4nnn[nH]4)cc3n2C2CCC2)cc1)C(=O)Nc1ccc(N2CCOC3(CC3)C2)cc1` [Example 50], the pIC50 in assay [1] (setting [3]) is 6.95.
Turning to `O=C(Nc1ccc(-c2cc3cc(F)c(-c4nnn[nH]4)cc3n2C23CC(C2)C3)cc1)C(=O)Nc1ccc(N2CCC3(CCOC3)CC2)cc1` [Example 71], the pIC50 in assay [1] (setting [3]) is 7.30.
For the compound `CC(C)(O)C1CCN(c2ccc(NC(=O)C(=O)Nc3ccc(-c4cc5cc(F)c(-c6nnn[nH]6)cc5n4CC(F)(F)F)cc3)cc2)CC1` [Example 39], the pIC50 in assay [1] (setting [3]) was 7.37.
On the same count and under the same terms, for `COCC1(CO)CCN(c2ccc(NC(=O)C(=O)Nc3ccc(-c4cc5cc(F)c(-c6nnn[nH]6)cc5n4C4CCC4)cc3)cc2)CC1` [Example 44] the value was 7.24; for `CC(C)(O)C1CCN(c2ccc(NC(=O)C(=O)Nc3ccc(-c4cc5cc(F)c(-c6nnn[nH]6)cc5n4CC4CCC4)cc3)cc2)CC1` [Example 38], 6.95.
For `N#CC1CCN(c2ccc(NC(=O)C(=O)Nc3ccc(-c4cc5cc(F)c(-c6nnn[nH]6)cc5n4C4CCC4)cc3)cc2)CC1` [Example 22], the pIC50 in assay [1] (setting [3]) was 7.42. The “SHP2 IC50 times lower than control compound 11a-1” value in assay [1] is recorded as 3-4 times.
For the compound `O=C(Nc1ccc(-c2cc3cc(F)c(-c4nnn[nH]4)cc3n2C2CCC2)cc1)C(=O)Nc1ccc(N2CCC3(CCC(CO)CC3)CC2)cc1` [Example 112], the pIC50 in assay [1] (setting [3]) is 6.98.
